Experimental data published in PubChem BioAssay (NCI).
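Cultured in 96-well plates, cells were exposed to test compound for 48 hours across five concentrations. Abbreviation: GI50, concentration required for 50% inhibition of growth. TGI: concentration producing complete growth inhibition.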 Where a SMILES comes first, the peptide text is derived from it. [ ]: non-standard residue; d: D form. The star is where a group is joined. Benzoyl(4-OMe) = COc1ccc(C(=O)*)cc1; 2Thi = N[CH](Cc1cccs1)C(=O)O

Assays:
Experiment in all cases: inhibition of tumour cell growth, NCI panel, 48 h
U251 CNS = test system: U251 CNS
MCF7 breast = test system: MCF7 breast
SF-539 CNS = test system: SF-539 CNS
SR leukemia = test system: SR leukemia
OVCAR-3 ovarian = test system: OVCAR-3 ovarian
MOLT-4 leukemia = test system: MOLT-4 leukemia
SNB-75 CNS = test system: SNB-75 CNS
TK-10 renal = test system: TK-10 renal
IGROV1 ovarian = test system: IGROV1 ovarian
SK-MEL-2 melanoma = test system: SK-MEL-2 melanoma
PC-3 prostate = test system: PC-3 prostate
CCRF-CEM leukemia = test system: CCRF-CEM leukemia
SW-620 colon = test system: SW-620 colon
OVCAR-4 ovarian = test system: OVCAR-4 ovarian
A549 NSCLC = test system: A549 NSCLC
RXF 393 renal = test system: RXF 393 renal
HL-60(TB) leukemia = test system: HL-60(TB) leukemia
CAKI-1 renal = test system: CAKI-1 renal
NCI/ADR-RES ovarian = test system: NCI/ADR-RES ovarian
UO-31 renal = test system: UO-31 renal
HOP-92 NSCLC = test system: HOP-92 NSCLC
UACC-62 melanoma = test system: UACC-62 melanoma
K-562 leukemia = test system: K-562 leukemia
SF-268 CNS = test system: SF-268 CNS
HCT-15 colon = test system: HCT-15 colon
SNB-19 CNS = test system: SNB-19 CNS
NCI-H460 lung = test system: NCI-H460 lung
EKVX NSCLC = test system: EKVX NSCLC
OVCAR-5 ovarian = test system: OVCAR-5 ovarian
MALME-3M melanoma = test system: MALME-3M melanoma
SN12C renal = test system: SN12C renal
RPMI-8226 leukemia = test system: RPMI-8226 leukemia
UACC-257 melanoma = test system: UACC-257 melanoma
HS 578T breast = test system: HS 578T breast
SK-OV-3 ovarian = test system: SK-OV-3 ovarian
NCI-H522 lung = test system: NCI-H522 lung
LOX IMVI melanoma = test system: LOX IMVI melanoma
DU-145 prostate = test system: DU-145 prostate
HCT-116 colon = test system: HCT-116 colon
MDA-MB-435 = test system: MDA-MB-435
786-0 renal = test system: 786-0 renal
SK-MEL-5 melanoma = test system: SK-MEL-5 melanoma
KM12 colon = test system: KM12 colon
HT29 colon = test system: HT29 colon
HOP-62 NSCLC = test system: HOP-62 NSCLC
SF-295 CNS = test system: SF-295 CNS
SK-MEL-28 melanoma = test system: SK-MEL-28 melanoma
A498 renal = test system: A498 renal
M14 melanoma = test system: M14 melanoma
OVCAR-8 ovarian = test system: OVCAR-8 ovarian
ACHN renal = test system: ACHN renal
T-47D breast = test system: T-47D breast
NCI-H23 lung = test system: NCI-H23 lung
COLO 205 colon = test system: COLO 205 colon
NCI-H226 lung = test system: NCI-H226 lung
HCC-2998 colon = test system: HCC-2998 colon
MDA-MB-231 breast = test system: MDA-MB-231 breast
BT-549 breast = test system: BT-549 breast

## CC(=O)c1sc2c(c1OC(=O)c1ccc(Cl)cc1)c(=O)n(-c1ccccc1)c(=S)n2-c1ccccc1
U251 CNS
  TGI: 15 µM
MCF7 breast
  TGI: 71.9 µM
SF-539 CNS
  TGI: 5.06 µM
SR leukemia
  TGI: 23.1 µM
OVCAR-3 ovarian
  TGI: 41.6 µM
MOLT-4 leukemia
  TGI: 6.68 µM
SNB-75 CNS
  TGI: 23.3 µM
TK-10 renal
  TGI: 87.4 µM
IGROV1 ovarian
  TGI: 37.8 µM
SK-MEL-2 melanoma
  TGI: 3.7 µM
PC-3 prostate
  TGI: > 100 µM
CCRF-CEM leukemia
  TGI: 7.41 µM
SW-620 colon
  TGI: 70.7 µM
OVCAR-4 ovarian
  TGI: 65.5 µM
A549 NSCLC
  TGI: > 76.1 µM
RXF 393 renal
  TGI: 5.91 µM
HL-60(TB) leukemia
  TGI: 30.6 µM
CAKI-1 renal
  TGI: > 47 µM
NCI/ADR-RES ovarian
  TGI: 23 µM
UO-31 renal
  TGI: 9.24 µM
HOP-92 NSCLC
  TGI: 15.8 µM
UACC-62 melanoma
  TGI: 42.6 µM
K-562 leukemia
  TGI: 38.4 µM
SF-268 CNS
  TGI: > 100 µM
HCT-15 colon
  TGI: 25.8 µM
SNB-19 CNS
  TGI: > 42.9 µM
NCI-H460 lung
  TGI: 22.1 µM
EKVX NSCLC
  TGI: 77.8 µM
OVCAR-5 ovarian
  TGI: 13.2 µM
MALME-3M melanoma
  TGI: 4.51 µM
SN12C renal
  TGI: 6.43 µM
RPMI-8226 leukemia
  TGI: 8.56 µM
UACC-257 melanoma
  TGI: 38.4 µM
HS 578T breast
  TGI: 9.72 µM
SK-OV-3 ovarian
  TGI: 7.03 µM
NCI-H522 lung
  TGI: 18.9 µM
LOX IMVI melanoma
  TGI: 6.92 µM
DU-145 prostate
  TGI: > 100 µM
HCT-116 colon
  TGI: 25.2 µM
MDA-MB-435
  TGI: > 36.8 µM
786-0 renal
  TGI: 15.9 µM
SK-MEL-5 melanoma
  TGI: 7.61 µM
KM12 colon
  TGI: 44.7 µM
HT29 colon
  TGI: 8.95 µM
HOP-62 NSCLC
  TGI: 24.1 µM
SF-295 CNS
  TGI: 5.88 µM
SK-MEL-28 melanoma
  TGI: > 31.8 µM
A498 renal
  TGI: 3.64 µM
M14 melanoma
  TGI: 5.48 µM
OVCAR-8 ovarian
  TGI: 15.1 µM
ACHN renal
  TGI: 15.7 µM
T-47D breast
  TGI: > 69.4 µM
NCI-H23 lung
  TGI: > 68.6 µM
COLO 205 colon
  TGI: 13.8 µM
NCI-H226 lung
  TGI: 5.56 µM
HCC-2998 colon
  TGI: > 58.3 µM
MDA-MB-231 breast
  TGI: 19.2 µM

## COc1cc(-c2nc3ccc(C)cc3[nH]2)ccc1OCC(=O)N=Nc1c(O)[nH]c2ccc(Cl)cc12
U251 CNS
  GI50: 0.418 µM
  TGI: 1.66 µM
SF-539 CNS
  GI50: 1.63 µM
  TGI: 3.05 µM
SNB-75 CNS
  GI50: 1.43 µM
  TGI: 3.72 µM
TK-10 renal
  GI50: 3.48 µM
  TGI: 9.5 µM
OVCAR-4 ovarian
  GI50: 2.24 µM
  TGI: 4.83 µM
RXF 393 renal
  GI50: 1.59 µM
  TGI: 3.04 µM
CAKI-1 renal
  GI50: 1.43 µM
  TGI: 2.93 µM
NCI/ADR-RES ovarian
  GI50: > 100 µM
  TGI: > 100 µM
HOP-92 NSCLC
  GI50: 1.91 µM
  TGI: 7.05 µM
HCT-15 colon
  GI50: 2.13 µM
  TGI: > 100 µM
SNB-19 CNS
  GI50: 1.91 µM
  TGI: 5.57 µM
BT-549 breast
  GI50: 2.97 µM
  TGI: > 100 µM
EKVX NSCLC
  GI50: 3.85 µM
  TGI: > 100 µM
MALME-3M melanoma
  GI50: 1.64 µM
  TGI: 3.14 µM
SK-OV-3 ovarian
  GI50: 3.44 µM
  TGI: > 100 µM
LOX IMVI melanoma
  GI50: 0.289 µM
  TGI: 1.01 µM
HOP-62 NSCLC
  GI50: 2.31 µM
  TGI: 7.02 µM
SF-295 CNS
  GI50: 1.8 µM
  TGI: 3.36 µM
ACHN renal
  GI50: 3.64 µM
  TGI: > 100 µM
NCI-H23 lung
  GI50: 2.06 µM
  TGI: 6.18 µM
MDA-MB-231 breast
  GI50: 0.438 µM
  TGI: 1.67 µM

## CCC(C)C(NC(=O)C(Cc1cccs1)NC(=O)C(CC(C)C)NC(=O)C(CC(C)C)NC(=O)C(CCCCN)NC(=O)C(CCCN=C(N)N)NC(=O)c1ccc(OC)cc1)C(=O)NC(CC(C)C)C(N)=O (stereo not drawn) ({Benzoyl(4-OMe)}-RKLL[2Thi]IL-NH2; configuration not given here)
BT-549 breast
  TGI: > 100 µM
UACC-257 melanoma
  TGI: > 100 µM
NCI-H23 lung
  TGI: > 100 µM
NCI-H226 lung
  TGI: > 100 µM
